The source of these data is publication PMC5724689, “Increased Conformational Flexibility of a Macrocycle–Receptor Complex Contributes to Reduced Dissociation Rates” (Chemistry (Weinheim an Der Bergstrasse, Germany), 2017).

Structures are written as SMILES.

Experiment [1] has as its target T1, 14-3-3ζ (14‐3‐3 isoform ζ) (Homo sapiens, UniProt P63104).
T1 construct: 14-3-3ζ (aa 1-245) with remaining His-Tag; made in house
T1 sequence (P63104 1-245): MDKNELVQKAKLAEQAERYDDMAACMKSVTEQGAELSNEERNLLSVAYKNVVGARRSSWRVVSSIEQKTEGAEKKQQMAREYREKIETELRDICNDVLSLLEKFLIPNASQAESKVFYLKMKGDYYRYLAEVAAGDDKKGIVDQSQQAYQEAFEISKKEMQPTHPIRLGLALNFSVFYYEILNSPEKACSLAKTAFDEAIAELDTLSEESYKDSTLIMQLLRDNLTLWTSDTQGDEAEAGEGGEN
Description: biochemical. Format: binding. The conditions noted are these: for koff: 19F NMR line shape analysis, slow exchange, 50 mM HEPES, 100 mM NaCl, 2 mM MgCl2, 1% DMSO, 10% D2O, pH 7.4, room temperature, error from fitting procedure (Equation S1), read-out: dissociation rate koff (NMR); for association rate kon = koff × Kd^-1 (Figure 2b) / kon: calculated from koff (19F NMR) and ITC-derived Kd; for kon: read-out: association rate kon = koff × Kd^-1.

In experiment [2] the target is T1, 14-3-3ζ (14‐3‐3 isoform ζ). As to the kind of experiment: biochemical. Format: binding. The conditions noted are these: ITC, T = 303.15 K, pH 7.4; mean value of 3 runs.

For the compound `CC(C)C[C@H](NC(=O)[C@H](CC(=O)O)NC(=O)[C@H](CC(C)C)NC(=O)[C@]1(C)CCCCCCCC[C@@](C)(NC(=O)CNC(=O)[C@H](CCC(N)=O)NC(=O)CNC(=O)C(F)(F)F)C(=O)N[C@@H](CC(C)C)C(=O)N[C@@H](CC(=O)O)C(=O)N1)C(=O)N[C@@H](C)C(=O)N[C@@H](CO)C(N)=O` [MC18], in experiment [1], the off-rate constant (koff) was determined as 1.58 s⁻¹, the “association rate kon = koff × Kd^-1 (Figure 2b)” value was 4.38 ±0.47 s^-1M^-1 10^6 and the kon was 4.38e+06 M⁻¹ s⁻¹. Besides, the dissociation constant Kd in experiment [2] came to 362 nM.

With `CC(C)C[C@H](NC(=O)[C@H](CC(=O)O)NC(=O)[C@H](CC(C)C)NC(=O)[C@]1(C)CCCCCCCCCCCC[C@](C)(NC(=O)CNC(=O)[C@H](CCC(N)=O)NC(=O)CNC(=O)C(F)(F)F)C(=O)N[C@@H](CC(C)C)C(=O)N[C@@H](CC(=O)O)C(=O)N1)C(=O)N[C@@H](C)C(=O)N[C@@H](CO)C(N)=O` [MC22], in experiment [1], the off-rate constant (koff) is 0.45 s⁻¹, the “association rate kon = koff × Kd^-1 (Figure 2b)” value is on record as 4.12 ±0.39 s^-1M^-1 10^6 and the kon is 4.12e+06 M⁻¹ s⁻¹. Further, in experiment [2], the Kd was found to be 111 nM.

For orientation: koff means a measure of how fast the partners let go of each other. By kon is commonly meant the rate constant with which the complex forms. The term Kd denotes the free concentration of one partner at which half of the binding sites on the other are occupied at equilibrium, for simple one-to-one binding.
